Experiments:
[1] = tested on: APOE*3-Leiden transgenic (E3L) mice; assay: Organ and tissue weights in E3L mice on high cholesterol diet
From the text: (§1) We assessed the effect of inhibiting FAAH activity on body weight, body fat, triglyceride levels, cholesterol levels in APOE*3-Leiden transgenic (E3L) mice, an animal model of hyperlipidemia. […] See van Vlijmen et al. (1994), J. Clin Invest., 93:1403-1410. Indeed, upon high fat and cholesterol feeding, these mice develop various stages of atherosclerotic lesions depending on plasma total cholesterol levels and resembling those found in humans. See Groot et al. (1996), Arterioscler. Thromb. Vasc. Biol., 16:926-933; Versch ren et al. (2005), Arterioscler. Thromb. Vasc Biol., 25:161-167; and Lutgens et al. (1999), Circulation; 99(2):276-283). Thus, the E3L mouse is a suitable model for the investigation of the efficacy of anti-atherosclerotic drugs.
(§2) E3L mice were fed a high cholesterol (1% w/w) diet (HC diet) for a period of four weeks. Animals were then matched based on their plasma cholesterol levels, and were divided into five groups, each of which was maintained on an HC diet.
(§3) Blood samples were collected at days 0, 14, and 28 of the treatment period. At the end of the treatment period, animals were sacrificed, and various tissues and organs were analyzed. Unless otherwise indicated, values are mean±standard deviation (SD).

[2] = tested on: APOE*3-Leiden transgenic (E3L) mice; assay: Body weight in E3L mice on high cholesterol diet; assay type: in vivo, mouse
From the text: as §1, §2

[3] = tested on: APOE*3-Leiden transgenic (E3L) mice; assay: Food intake per animal per day in E3L mice; assay type: in vivo, mouse
From the text: as §1, §2

[4] = tested on: APOE*3-Leiden transgenic (E3L) mice; assay: Total plasma cholesterol in E3L mice; assay type: in vivo, mouse
From the text: as §1, §2, §3

[5] = tested on: APOE*3-Leiden transgenic (E3L) mice; assay: Plasma lipoprotein profiles (size fractionation of pooled plasma) in E3L mice; assay type: in vivo, mouse; conditions: day 28, FIG. 1
Description: as §2
Lipoprotein profiles were determined in pooled plasma from day 28, as described in Verschuren et al. (2005), Arterioscler. Thromb. Vasc Biol., 25:161-167. An equal amount of plasma per animal was used to prepare a plasma pool for each group. Plasma lipoproteins in each plasma pool were separated by size fractionation. Typically, VLDL, IDL/LDL and HDL lipoproteins are eluted in fractions 4-8, fractions 11-16 and fractions 17-20, respectively.

[6] = tested on: APOE*3-Leiden transgenic (E3L) mice; assay: Total plasma triglyceride levels in E3L mice; assay type: in vivo, mouse
From the text: as §1, §2, §3

[7] = tested on: APOE*3-Leiden transgenic (E3L) mice; assay: Plasma alanine aminotransferase (ALAT) activity in E3L mice; assay type: in vivo, mouse
Description: as §2
Levels of plasma alanine aminotransferase (ALAT) were determined on day 28 (table 7). Plasma ALAT is a measure of hepatic stress and increases in plasma ALAT levels are often associated with liver damage. […] Thus, a reduction in plasma ALAT levels is associated with improved liver function.

[8] = tested on: APOE*3-Leiden transgenic (E3L) mice; assay: Oil Red O staining of liver sections (steatosis) in E3L mice; assay type: in vivo, mouse; conditions: compared to the control vehicle group
From the text: as §2
In order to examine cellular stress in the liver due to lipid storage (steatosis), we stained frozen liver tissue sections with Oil Red O a fat-soluble diazo dye used to stain for lipids. Digital photomicrographs of liver cross sections were taken for each individual animal (magnification: 20 fold). […]

[9] = tested on: APOE*3-Leiden transgenic (E3L) mice; assay: Lipid content of liver (TLC) in E3L mice; assay type: in vivo, mouse
From the text: as §2
A reduction of Red Oil O staining in liver generally indicates reduced liver lipid content. We therefore quantified levels of lipids in livers from each animal, as described in Havekes et al. (1987), Biochem. J., 247:739-746; Delsing et al. (2005), J. Cardiovasc. Pharmacol., 45:53-60; and Post et al. (2004), ATVB, 24:768-774. Liver tissue homogenates were prepared. Lipids were extracted, dried under nitrogen, dissolved in chloroform, and spotted onto a channeled 20×20 cm silica gel thin layer chromatography (TLC) plate. Lipids were then separated, TLC plates were warmed up to visualize bands, and bands were quantified using an internal standard as reference.

[10] = tested on: APOE*3-Leiden transgenic (E3L) mice; assay: Plasma leptin ELISA in E3L mice; assay type: in vivo, mouse
From the text: as §2
Accordingly, we quantified plasma leptin levels after a four hour fasting period at treatment time points 0, 14, and 28 days using a mouse-specific leptin ELISA or (kit number MOB00 from R&D Systems, Minneapolis, Minn.) according to the guidelines and protocol specified by the manufacturer.

[11] = tested on: APOE*3-Leiden transgenic (E3L) mice; assay: Plasma adiponectin ELISA in E3L mice; assay type: in vivo, mouse
From the text: as §2
We determined plasma adiponectin levels after a four hour fasting period at 0, 14, 28 days, using a mouse-specific adiponectin/Acrp30 ELISA (kit number MRP300 from R&D Systems, Minneapolis, Minn.).

[12] = tested on: APOE*3-Leiden transgenic (E3L) mice; assay: Plasma ketone body (D-3-hydroxybutyrate) levels in E3L mice; assay type: in vivo, mouse
From the text: as §2
We quantified plasma D-3-hydroxybutyrate (b-HBA; ketone bodies) levels were quantified in plasma samples obtained after a 4-hour fasting period at time points t=0, t=2, and t=4 weeks using kits #2940 (b-HBA reagent set) and #2947 (b-HBA control set)) according to the guidelines and protocol specified by the manufacturer (Instruchemie, Delfzijl, The Netherlands).

cynomolgus monkeys = assay: Time course of plasma OEA levels after oral dosing in cynomolgus monkeys; assay type: in vivo, cynomolgus monkey; conditions: oral 50-1500 mg/kg
Description: Afterwards, a time course of plasma OEA levels was determined for each subject by obtaining a plasma sample at 0.5, 1, 2, 4, 8, 12, and 24 hours post-administration.

[13] = E3L mice, HC diet, end of four-week treatment, mean ± SD

NC(=O)c1cccc(-c2cccc(OC(=O)NC3CCCCC3)c2)c1 [KDS-4103]
Organ and Tissue Weights: Brain [1, 13]: ^#0.46 ± 0.02^ g
Organ and Tissue Weights: Fat (gonadal fat) [1, 13]: *0.22 ± 0.04 g
Organ and Tissue Weights: Heart [1, 13]: 0.14 ± 0.02 g
Organ and Tissue Weights: Liver [1, 13]: 1.03 ± 0.14 g
Organ and Tissue Weights: Lung [1, 13]: 0.18 ± 0.01 g
brain weight, in words ([1]; end of treatment): slight, but significant increase
heart, liver, or lung weights, in words ([1]; end of treatment): No significant changes
gonadal fat weight, in words ([1]; relative to the oral vehicle group): significantly lower
body weights, in words ([2]; last time point (4 weeks), within group): significantly reduced
Body Weight ([2]; week 0): 21.8 ± 1.1 g
Body Weight ([2]; week 0.5): 21.9 ± 1.0 g
Body Weight ([2]; week 1): 21.9 ± 1.0 g
Body Weight ([2]; week 1.5): *21.3 ± 0.9 g
Body Weight ([2]; week 2): *21.4 ± 0.9 g
Body Weight ([2]; week 2.5): *21.4 ± 0.9 g
Body Weight ([2]; week 3): *21.3 ± 0.9 g
Body Weight ([2]; week 3.5): 21.5 ± 0.9 g
Body Weight ([2]; week 4): *21.5 ± 1.0 g
Food Intake Per Animal Per Day ([3]; interval 0-0.5 weeks): 2.3 ± 0.1 g
Food Intake Per Animal Per Day ([3]; interval 0.5-1.0 weeks): 2.4 ± 0.1 g
Food Intake Per Animal Per Day ([3]; interval 1.0-1.5 weeks): 2.3 ± 0.2 g
Food Intake Per Animal Per Day ([3]; interval 1.5-2.0 weeks): 2.6 ± 0.1 g
Food Intake Per Animal Per Day ([3]; interval 2.0-2.5 weeks): 2.3 ± 0.3 g
Food Intake Per Animal Per Day ([3]; interval 2.5-3.0 weeks): 2.5 ± 0.1 g
Food Intake Per Animal Per Day ([3]; interval 3.0-3.5 weeks): 2.4 ± 0.3 g
Food Intake Per Animal Per Day ([3]; interval 3.5-4.0 weeks): *2.0 ± 0.1 g
Food Intake Per Animal Per Day ([3]; interval run-in): 2.5 ± 0.5 g
food intake, in words ([3]; last time point): slight, but significant, decrease
Total Plasma Cholesterol ([4]; day 0): 14.3 ± 3.2 mM
Total Plasma Cholesterol ([4]; day 14): ^#19.1 ± 4.9 mM
Total Plasma Cholesterol ([4]; day 28): ^#19.5 ± 4.1 mM
total plasma cholesterol levels, in words ([4]; days 14 and 28, relative to respective control group): slightly and significantly increased
IDL/LDL particle size, in words [5]: slight shift toward larger IDL/LDL particles
VLDL fraction of plasma lipoprotein profile, in words [5]: increase
Total Plasma Triglyceride Levels ([6]; day 0): 1.5 ± 0.4 mM
Total Plasma Triglyceride Levels ([6]; day 14): 1.9 ± 0.6 mM
Total Plasma Triglyceride Levels ([6]; day 28): 1.9 ± 0.5 mM
total plasma triglyceride levels, in words ([6]; relative to respective control group): not significantly changed
Plasma Alanine Amino Transferase Activity ([7]; day 28): *94.0 ± 22.1 U/L
plasma ALAT levels, in words ([7]; day 28, compared to respective control group): significantly decreased
steatotic (Oil Red O) staining in liver, in words [8]: small, but not significant decrease
liver triglycerides (TG), in words ([9]; compared to respective control group): significantly decreased
liver cholesterol esters (CE), in words ([9]; compared to the oral vehicle group): significantly increased
Lipid Content of Liver: Cholesterol Esters ([9]; end of four-week treatment): ^#59 ± 6
Lipid Content of Liver: Free Cholesterol ([9]; end of four-week treatment): 22 ± 2
Lipid Content of Liver: Triglycerides ([9]; end of four-week treatment): *64 ± 14
Plasma Leptin Levels ([10]; day 0, four hour fasting): ^#3.9 ± 1.5 ng/ml
Plasma Leptin Levels ([10]; day 14, four hour fasting): ^#4.5 ± 2.1 ng/ml
Plasma Leptin Levels ([10]; day 28, four hour fasting): ^#5.1 ± 2.3 ng/ml
plasma leptin levels, in words ([10]; relative to the oral vehicle control group): significantly decreased
Plasma Adiponectin Levels ([11]; day 0, four hour fasting): 10.4 ± 1.9 µg/mL
Plasma Adiponectin Levels ([11]; day 14, four hour fasting): 10.2 ± 2.7 µg/mL
Plasma Adiponectin Levels ([11]; day 28, four hour fasting): ^#11.9 ± 1.9^ mg/ml
plasma adiponectin level, in words ([11]; day 28 as compared to day 0): significantly higher
plasma HB levels, in words ([12]; at 28 days, compared to the oral vehicle control group): significantly lower
Plasma Ketone Body (HB) levels ([12]; day 0, 4-hour fasting): 0.73 ± 0.24 mM
Plasma Ketone Body (HB) levels ([12]; day 14, 4-hour fasting): 0.32 ± 0.11 mM
Plasma Ketone Body (HB) levels ([12]; day 28, 4-hour fasting): ^#0.43 ± 0.11^ mM
time of peak plasma OEA levels (cynomolgus monkeys; FIG. 2): four
plasma OEA levels, in words (cynomolgus monkeys; all time points after the peak (up to 24 hours)): remained elevated
plasma OEA levels, in words (cynomolgus monkeys; two hours after administration, FIG. 2): clearly elevated

Source: US20090099240A1, “METHODS FOR TREATING ENERGY METABOLISM DISORDERS BY INHIBITING FATTY ACID AMIDE HYDROLASE ACTIVITY” (N.V. Organon, priority 2006, published 2009)
